In patent publication US20220411419A1, “SMALL MOLECULE MODULATORS OF MHC-I” (RetroVirox, Inc., priority 2018, published 2022) one finds CC50, EC50 and activity data, which are given here for 22 compounds.

A short description of one series: in vitro. Particulars: human, uninfected SupT1 cells.
Series [1] deals with MHC-I surface expression in uninfected SupT1 cells. Nature of the series: Increase of MHC-I surface expression in uninfected SupT1 cells (mean-MHC-I EC50, FIG. 6A). The note with it: Homo sapiens, SUP-T1, 24 h with compound, read-out: EC50 for MHC-I increased surface expression. The format is cell-based. As to the method:
In some instances, the effect of small molecules in modulation of surface MHC-I was monitored in uninfected (rather than HIV-infected) Sup-T1 cells (FIG. 6A). In these experiments uninfected SupT1 cells were incubated with the compounds for 24 h and then the increase in MHC-I surface expression was monitored by staining cells with the biotinylated HLA-A2/28 antibody (One Lambda, clone BIH0037), washed and then incubated with streptavidin conjugated with APC (Streptavidin APC, EBiosciences, 17-4317) to reveal the anti-HLA-A2 bound antibody. After washing the cells again they were fixed with 0.5% paraformaldehyde and submitted to flow cytometry to determine the levels of MHC-I surface expression (APC fluorescence) in live cells (as estimated by FS/SS in these cells). […] From these assays “mean-MHC-I” EC50 values were generated to indicate the concentration of compound that augments the mean surface levels of MHC-I to 50% of the highest levels accomplished by the compound, as compared to cells treated with vehicle alone. […] Therefore, both assays: inhibition of MHC-I downmodulation in HIV infected SupT1 cells, or increase in surface MHC-I in uninfected SupT1 cells, were indistinctively used to monitor the potency of the compounds to modulate surface expression of MHC-I in SupT1 cells.
Table 7 show the activity of selected compounds utilizing the assay in which the increase of MHC-I surface expression in uninfected SupT1 cells was evaluated, as shown in FIG. 6A. The EC50 for MHC-I increased surface expression was determined using the methods described in Example 2 and illustrated in FIG. 6A.

Series [2] deals with downmodulation of MHC-I molecules expressed on the surface of HIV infected SupT1 cells. Nature of the series: cells. The note with it: for EC50: Human immunodeficiency virus 1, SUP-T1, read-out: EC50 for inhibition of MHC-I downmodulation utilizing the R1 parameter; for activity at 100 µM: Human immunodeficiency virus 1, SUP-T1, read-out: R1 @ 100 μM (R1 value for MHC-I downmodulation as % of the vehicle control).

Broadly, the CC50 is the concentration that lowers cell viability or growth by half. Low readings indicate greater toxicity to the cells, high ones lower toxicity to the cells. The EC50 is the concentration needed to bring the measured effect to its halfway point. As for `CC1(C)Cc2cccc(OCC(=O)N(CC(F)(F)F)c3nc4c(s3)CCCC4)c2O1` [Compound 164, 2-((2,2-Dimethyl-2,3-dihydrobenzofuran-7-yl)oxy)-N-(4,5,6,7-tetrahydrobenzo[d]thiazol-2-yl)-N-(2,2,2-trifluoroethyl)acetamide], the CC50 in the series “in vitro” is more than 125 µM. Further, in series [1], the EC50 was found to be 0.026 µM.

Regarding `Cc1nc(NC(=O)COc2cccc3c2OC(C)(C)C3)ccc1C1CC1` [Compound 167, N-(5-Cyclopropyl-6-methylpyridin-2-yl)-2-((2,2-dimethyl-2,3-dihydrobenzofuran-7-yl)oxy)acetamide], in “in vitro”, the 50% cytotoxic concentration (CC50) is more than 125 µM. The EC50 in series [1] came out at 0.47 µM.

As to `Cc1nc(NC(=O)COc2cc(C(F)(F)F)cc3c2OC(C)(C)C3)ccc1C1CC1` [Compound 174, N-(5-Cyclopropyl-6-methylpyridin-2-yl)-2-((2,2-dimethyl-5-(trifluoromethyl)-2,3-dihydrobenzofuran-7-yl)oxy)acetamide], the CC50 in “in vitro” is more than 125 µM. For the same compound, the half-maximal effective concentration (EC50) in series [1] was found to be 2.5 µM.

`Cc1cccnc1CN(C(=O)COc1cccc2c1OC(C)(C)C2)c1ccc(C2CC2)c(C)n1` [Compound 170, N-(5-Cyclopropyl-6-methylpyridin-2-yl)-2-((2,2-dimethyl-2,3-dihydrobenzofuran-7-yl)oxy)-N-((3-methylpyridin-2-yl)methyl)acetamide] had a CC50 in the series “in vitro” of more than 125 µM. The half-maximal effective concentration (EC50) in series [1] worked out at 1 µM.

Regarding `CC1(C)Cc2cccc(OCC(=O)N(CC(F)(F)F)c3nc4c(s3)COCC4)c2O1` [Compound 166, N-(6,7-Dihydro-4H-pyrano[4,3-d]thiazol-2-yl)-2-((2,2-dimethyl-2,3-dihydrobenzofuran-7-yl)oxy)-N-(2,2,2-trifluoroethyl)acetamide], the CC50 in the series “in vitro” was more than 125 µM. Also, the concentration giving a half-maximal response (EC50) in series [1] turned out to be 0.2 µM.

The compound `COc1ccccc1OCC(=O)Nc1nc2c(F)cccc2s1` [Compound 192, N-(4-Fluorobenzo[d]thiazol-2-yl)-2-(2-methoxyphenoxy)acetamide] came in with a CC50 at 48 h in “in vitro” of more than 10 µM. Also, the concentration giving a half-maximal response (EC50) in series [2] worked out at 1.8 µM.

The compound `CN(C(=O)COc1cccc2[nH]ccc12)c1nc2c(s1)CCCC2` [Compound 111, 2-((1H-Indol-4-yl)oxy)-N-methyl-N-(4,5,6,7-tetrahydrobenzo[d]thiazol-2-yl) acetamide] returned a CC50 at 48 h in the series “in vitro” of more than 125 µM. The EC50 in series [2] came to 0.18 µM.

Turning to `CN(C(=O)COc1ccccc1OC(F)(F)F)c1nc2c(s1)CCCC2` [Compound 161, N-Methyl-N-(4,5,6,7-tetrahydrobenzo[d]thiazol-2-yl)-2-(2-(trifluoromethoxy)phenoxy)acetamide], the 50% cytotoxic concentration (CC50) at 48 h in “in vitro” is more than 125 µM. Also, the concentration for a half-maximal effect (EC50) in series [2] worked out at 0.15 µM.

Compound `CC1(C)Cc2cccc(OCC(=O)Nc3ccc4ccccc4n3)c2O1` [Compound 16, 2-((2,2-Dimethyl-2,3-dihydrobenzofuran-7-yl)oxy)-N-(quinolin-2-yl) acetamide] showed a cytotoxic concentration (CC50) at 48 h in the series “in vitro” of more than 90 µM. Also, the EC50 in series [2] turned out to be 10 µM.

In the series “in vitro”, `COc1ccccc1CCC(=O)Nc1nc2c(s1)CCCC2` [Compound 194, 3-(2-Methoxyphenyl)-N-(4,5,6,7-tetrahydrobenzo[d]thiazol-2-yl) propanamide] gave a CC50 at 48 h of 125 µM. Also, the EC50 in series [2] was found to be 1.7 µM.

In the case of `CC1(C)Cc2cccc(OCC(=O)N(Cc3ncccn3)c3nc4c(s3)CCCC4)c2O1` [Compound 44, 2-((2,2-Dimethyl-2,3-dihydrobenzofuran-7-yl)oxy)-N-(pyrimidin-2-ylmethyl)-N-(4,5,6,7-tetrahydrobenzo[d]thiazol-2-yl)acetamide], the 50% cytotoxic concentration (CC50) at 48 h in “in vitro” is more than 125 µM. Also, in series [2], the EC50 was 0.033 µM.

Consider `CC(C)c1ccc(NC(=O)COc2cccc3c2OC(C)(C)C3)nc1` [Compound 70, 2-((2,2-Dimethyl-2,3-dihydrobenzofuran-7-yl)oxy)-N-(5-isopropylpyridin-2-yl)acetamide], for which, in the series “in vitro”, the CC50 at 48 h is more than 125 µM. Besides, the half-maximal effective concentration (EC50) in series [2] was determined as 0.89 µM.

In the series “in vitro”, `CC1(C)Cc2cccc(OCC(=O)Nc3nccc(C(F)(F)F)n3)c2O1` [Compound 28, 2-((2,2-Dimethyl-2,3-dihydrobenzofuran-7-yl)oxy)-N-(4-(trifluoromethyl)pyrimidin-2-yl)acetamide] displayed a CC50 of more than 100 µM and a 50% cytotoxic concentration (CC50) at 48 h of more than 100 µM. Also, in series [2], the 50% effective concentration (EC50) was more than 25 µM and the activity at 100 µM came to 80%.

`CC1(C)Cc2cccc(OCC(=O)Nc3nc4ccc(F)cc4s3)c2O1` [Compound 183, 2-((2,2-Dimethyl-2,3-dihydrobenzofuran-7-yl)oxy)-N-(6-fluorobenzo[d]thiazol-2-yl)acetamide] gave a CC50 at 48 h in “in vitro” of more than 100 µM. The EC50 in series [2] is 4.2 µM.

As to `Cc1ccc(N(C(=O)COc2cccc3c2OC(C)(C)C3)c2ccc(C)nn2)cc1` [Compound 88, 2-((2,2-Dimethyl-2,3-dihydrobenzofuran-7-yl)oxy)-N-(6-methylpyridazin-3-yl)-N-(p-tolyl)acetamide], the CC50 at 48 h in the series “in vitro” is more than 100 µM. The EC50 in series [2] was 3.25 µM.

In “in vitro”, `CC1(C)Cc2cccc(OCC(=O)Nc3cc4ccccc4cn3)c2O1` [Compound 17, 2-((2,2-Dimethyl-2,3-dihydrobenzofuran-7-yl)oxy)-N-(isoquinolin-3-yl) acetamide] yielded a CC50 at 48 h of more than 125 µM. Also, in series [2], the half-maximal effective concentration (EC50) turned out to be 22 µM.

In the series “in vitro”, `COc1ccc(N(C(=O)COc2cccc3c2OC(C)(C)C3)c2nc(C)cs2)cc1` [Compound 62, 2-((2,2-Dimethyl-2,3-dihydrobenzofuran-7-yl)oxy)-N-(4-methoxyphenyl)-N-(4-methylthiazol-2-yl)acetamide] had a CC50 at 48 h of more than 100 µM. In addition, in series [2], the 50% effective concentration (EC50) stood at 0.48 µM.

In “in vitro”, `CC(C)(C)OC(=O)N1CCC(CNC(=O)c2csc(NC(=O)COc3cccc4c3OC(C)(C)C4)n2)C1` (stereo not drawn) [Compound 155, tert-Butyl 3-((2-(2-((2,2-dimethyl-2,3-dihydrobenzofuran-7-yl)oxy)acetamido)thiazole-4-carboxamido)methyl)pyrrolidine-1-carboxylate] gave a half-maximal cytotoxic concentration (CC50) of more than 90 µM and a 50% cytotoxic concentration (CC50) at 48 h of more than 90 µM. Moreover, in series [2], the half-maximal effective concentration (EC50) is more than 25 µM and the activity at 100 µM is not below 100%.

`Cc1cccnc1CN(C(=O)COc1cccc2c1OC(C)(C)C2)c1nc2c(s1)CCCC2` [Compound 42, 2-((2,2-Dimethyl-2,3-dihydrobenzofuran-7-yl)oxy)-N-((3-methylpyridin-2-yl)methyl)-N-(4,5,6,7-tetrahydrobenzo[d]thiazol-2-yl)acetamide] registered a 50% cytotoxic concentration (CC50) at 48 h in the series “in vitro” of more than 125 µM. For the same compound, in series [2], the EC50 turned out to be 7.3 µM.

In the series “in vitro”, `CC1(C)Cc2cccc(OCC(=O)N(Cc3ccccn3)c3nc4c(s3)CCCC4)c2O1` [Compound 38, 2-((2,2-Dimethyl-2,3-dihydrobenzofuran-7-yl)oxy)-N-(pyridin-2-ylmethyl)-N-(4,5,6,7-tetrahydrobenzo[d]thiazol-2-yl)acetamide] yielded a CC50 at 48 h of 0.25 µM. In addition, in series [2], the concentration giving a half-maximal response (EC50) was determined as 0.006 µM.

In turn, `Cc1cccc(OCC(=O)N(C)c2nc3c(s2)CCCC3)c1Br` [Compound 117, 2-(2-Bromo-3-methylphenoxy)-N-methyl-N-(4,5,6,7-tetrahydrobenzo[d]thiazol-2-yl)acetamide] showed a CC50 at 48 h in “in vitro” of more than 125 µM. Moreover, in series [2], the concentration giving a half-maximal response (EC50) was 0.95 µM.

`Cc1csc(N(Cc2ccncc2)C(=O)COc2cccc3c2OC(C)(C)C3)n1` [Compound 35, 2-((2,2-Dimethyl-2,3-dihydrobenzofuran-7-yl)oxy)-N-(4-methylthiazol-2-yl)-N-(pyridin-4-ylmethyl)acetamide]: in the series “in vitro”, the half-maximal cytotoxic concentration (CC50) at 48 h was more than 100 µM. Further, the concentration for a half-maximal effect (EC50) in series [2] was found to be 1.42 µM.
